Assay results as given in ChEMBL document CHEMBL3124851, “A perspective on natural products research and ethnopharmacology in Mexico: the eagle and the serpent on the prickly pear cactus” (J Nat Prod, 2014).

Experiments:
Rattus norvegicus = species on record: Rattus norvegicus; assay: Increase in dopamine level in rat striatum by microdialysis assay (reference value: 4.2 nM); format: functional
D(3) dopamine receptor = D(3) dopamine receptor (Homo sapiens, UniProt P35462); assay: Agonist activity at dopamine D3 receptor (unknown origin)
[1] = Stimulation of dopaminergic neurons in rat posterior ventral tegmental area relative to ethanol; format: functional
Ileum = assay: Spasmolytic activity in guinea pig ileum; format: functional, tissue-based; settings: Cavia porcellus
Mus musculus [2] = assay: Antinociceptive activity in mouse at 2 mg/kg, ip by writhing test; format: functional; settings: route intraperitoneal
Mus musculus [3] = assay: Antinociceptive activity in mouse at 3 mg/kg, ip by writhing test; format: functional; settings: route intraperitoneal

Chain of D(3) dopamine receptor (P35462 whole entry): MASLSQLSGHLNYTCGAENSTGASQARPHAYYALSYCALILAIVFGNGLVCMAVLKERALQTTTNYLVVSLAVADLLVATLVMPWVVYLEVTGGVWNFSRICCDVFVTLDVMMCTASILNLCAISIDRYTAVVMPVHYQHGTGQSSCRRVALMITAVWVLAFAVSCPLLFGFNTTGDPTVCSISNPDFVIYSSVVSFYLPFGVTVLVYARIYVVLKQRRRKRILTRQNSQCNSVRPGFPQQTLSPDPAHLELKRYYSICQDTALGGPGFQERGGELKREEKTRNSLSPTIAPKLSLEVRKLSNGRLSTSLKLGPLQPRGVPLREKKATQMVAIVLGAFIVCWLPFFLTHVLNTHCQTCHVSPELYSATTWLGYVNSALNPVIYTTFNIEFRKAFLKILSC

C[C@H]1NCCc2cc(O)c(O)cc21
Activity (Rattus norvegicus): 300 nM

C[C@@H]1NCCc2cc(O)c(O)cc21
Activity (Rattus norvegicus): 21.5 nM | Ki (D(3) dopamine receptor): 500 nM

CC1NCCc2cc(O)c(O)cc21 (configuration not stated)
fold change (FC) [1]: 1000000

COc1ccc(-c2cc(=O)c3c(O)cc(O)cc3o2)cc1 [ACACETIN]
IC50 (Ileum): 1100 nM | Activity (Mus musculus [2]): 50%

C[C@H]1[C@H](C)CC[C@]2(C(=O)O)CC[C@]3(C)C(=CC[C@@H]4[C@@]5(C)CC[C@H](O)C(C)(C)[C@@H]5CC[C@]43C)[C@H]12 [URSOLIC ACID]
Activity (Mus musculus [3]): 50%
